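Step 1: Grow cells in 96-well plates. Step 2: Expose to compound for 48 hours at 5 concentrations. Step 3: Interpolate endpoints linearly; if unreached, use highest concentration. GI50 = concentration required for 50% inhibition of growth.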 Active and inactive are the calls of the source. Rule as the data show it: active = GI50 up to about 1.1 µM and inactive = higher.
Experiments:
Assay in all cases: NCI anticancer screen, dose series, 48 h
[1] = tested on: A549
[2] = tested on: CCRF-CEM
[3] = tested on: HCC 2998
[4] = tested on: HOP-62
[5] = tested on: HT-29
[6] = tested on: K562
[7] = tested on: KM12
[8] = tested on: LOX IMVI
[9] = tested on: M14
[10] = tested on: MCF7
[11] = tested on: NCI-H226
[12] = tested on: PC-3
[13] = tested on: SF-268
[14] = tested on: SF-539
[15] = tested on: SK-MEL-5
[16] = tested on: SNB-19
[17] = tested on: SW-620
[18] = tested on: U-251
[19] = tested on: UACC-62
[20] = tested on: UO-31

Row | SMILES | GI50 [1] | GI50 [2] | GI50 [3] | GI50 [4] | GI50 [5] | GI50 [6] | GI50 [7] | GI50 [8] | GI50 [9] | GI50 [10] | GI50 [11] | GI50 [12] | GI50 [13] | GI50 [14] | GI50 [15] | GI50 [16] | GI50 [17] | GI50 [18] | GI50 [19] | GI50 [20]
1 | CCOC(=O)/C=C/CCC(C)(C)COC(C)=O | > 10 µM (inactive) | > 10 µM (inactive) | > 10 µM (inactive) | > 10 µM (inactive) | > 10 µM (inactive) | > 10 µM (inactive) | > 10 µM (inactive) | > 10 µM (inactive) | > 10 µM (inactive) | > 10 µM (inactive) | > 10 µM (inactive) | > 10 µM (inactive) | > 10 µM (inactive) | > 10 µM (inactive) | > 10 µM (inactive) | > 10 µM (inactive) | > 10 µM (inactive) | > 10 µM (inactive) | > 10 µM (inactive) | > 10 µM (inactive)
2 | CCOC(=O)C(C(=O)OCC)=C1NC2(c3ccccc3Nc3ccc(C)cc32)C(C#N)S1 (stereo not given) | 3.01 µM (inactive) | 4.27 µM (inactive) | 3.57 µM (inactive) | 11.4 µM (inactive) | 3.56 µM (inactive) | 4.9 µM (inactive) | 4.43 µM (inactive) | 12.1 µM (inactive) | 3.92 µM (inactive) | 3.05 µM (inactive) | 11.5 µM (inactive) | 3.56 µM (inactive) | 9.12 µM (inactive) | 3.72 µM (inactive) | 7.73 µM (inactive) | 6.58 µM (inactive) | 6.59 µM (inactive) | 5.57 µM (inactive) | 9.48 µM (inactive) | 6.28 µM (inactive)
3 | O=C1C(NCCN2CCOCC2)=C(Cl)C(=O)c2ncccc21 | 1.55 µM (inactive) | 0.214 µM (active) | 0.625 µM (active) | 1.6 µM (inactive) | 0.637 µM (active) | 0.179 µM (active) | 1.34 µM (inactive) | 0.168 µM (active) | 0.469 µM (active) | 0.326 µM (active) | 1.69 µM (inactive) | 0.289 µM (active) | 1.52 µM (inactive) | 1.18 µM (inactive) | 0.312 µM (active) | 1.42 µM (inactive) | 0.105 µM (active) | 0.849 µM (active) | 0.618 µM (active) | 1.12 µM (active)
4 | C=CCOC(=O)N1c2ccc(O[Si](C)(C)C(C)(C)C)cc2[C@@]23O[C@@]24[C@@H]1C#C/C=C\C#C[C@]3(O)C(OC)(OC)C[C@@H]4C | 20 µM (inactive) | > 23.7 µM (inactive) | > 22.8 µM (inactive) | > 61.7 µM (inactive) | 12.9 µM (inactive) | 4.14 µM (inactive) | > 100 µM (inactive) | 16.7 µM (inactive) | > 65 µM (inactive) | 10.8 µM (inactive) | 13.6 µM (inactive) | 4.54 µM (inactive) | 97.7 µM (inactive) | > 29.2 µM (inactive) | 18.7 µM (inactive) | > 74.6 µM (inactive) | 14 µM (inactive) | 18.6 µM (inactive) | 10.8 µM (inactive) | 14.1 µM (inactive)
5 | COc1ccnc2c1C(=O)c1nc3ccccc3c3ccnc-2c13 | 0.142 µM (active) | 0.295 µM (active) | 0.0687 µM (active) | 0.125 µM (active) | 0.0571 µM (active) | 0.163 µM (active) | 0.101 µM (active) | 0.155 µM (active) | 0.0418 µM (active) | 0.0807 µM (active) | 0.17 µM (active) | 0.141 µM (active) | 0.137 µM (active) | 0.373 µM (active) | 0.0317 µM (active) | 0.182 µM (active) | 0.0809 µM (active) | 0.204 µM (active) | 0.136 µM (active) | 0.161 µM (active)
